Test systems include DLD-1 colon; KM20L2 colon; DMS 114 small cell lung; XF 498 CNS; OVCAR-4 ovarian; 786-0 renal; MDA-MB-231 breast; NCI/ADR-RES ovarian; BT-549 breast; MCF7 breast.
What all share (assay): inhibition of tumour cell growth, NCI panel, 48 h

The results in this text go back to PubChem BioAssay (NCI).

Several values for one entry are separate records, joined by “and”; a condition that tells them apart may be missing. Identical values can stand only once.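 Cultured in 96-well plates, cells were exposed to test compound for 48 hours across five concentrations. At the GI50, growth is halved. TGI marks complete inhibition of growth.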 Where a SMILES comes first, the peptide text is derived from it. [ ]: non-standard residue; d: D form. The star is where a group is joined. NMeF = CN[CH](Cc1ccccc1)C(=O)O; NMeV = CN[CH](C(=O)O)C(C)C; Boc = CC(C)(C)OC(=O)*

Regarding `COC(=O)/C(=N\Nc1nnc(C)n1N)C(C#N)c1ccc(Cl)cc1` (centres undefined), the TGI in the experiment with DLD-1 colon, in the experiment with KM20L2 colon, with DMS 114 small cell lung, with XF 498 CNS, with OVCAR-4 ovarian and in the experiment with 786-0 renal was greater than 100 µM throughout.
As to `COc1ccccc1CCc1cc(OC)c(OC)c(OC)c1`, the TGI in the experiment on DLD-1 colon was greater than 100 µM; with KM20L2 colon, greater than 100 µM; in the experiment with DMS 114 small cell lung, greater than 100 µM; in the experiment on XF 498 CNS, 84.8 µM; with OVCAR-4 ovarian, greater than 100 µM; in the experiment with 786-0 renal, greater than 100 µM.
For `CC(C)C(NC(=O)OC(C)(C)C)C(=O)N(C)C(Cc1ccccc1)C(=O)N(C)C(C(=O)O)C(C)C` (stereo not drawn) (Boc-Val-[NMeF]-[NMeV]-OH; configuration not given here), the TGI in the experiment with KM20L2 colon, with DMS 114 small cell lung, in the experiment with XF 498 CNS and in the experiment on 786-0 renal was greater than 100 µM each time.
In the case of `CCOc1ccccc1N=Nc1ccc2oc(=O)c(C(=O)Nc3cccc(C)c3)cc2c1`, the TGI was greater than 100 µM in the experiment on DLD-1 colon; greater than 100 µM in the experiment on KM20L2 colon; 63.4 µM in the experiment on DMS 114 small cell lung; greater than 100 µM in the experiment on XF 498 CNS; 79.4 µM in the experiment on OVCAR-4 ovarian; greater than 100 µM in the experiment with 786-0 renal.
Consider `CS/C(N)=N\NC(=O)CCC(=O)Nc1ccccc1C(F)(F)F`, for which the TGI with DLD-1 colon was greater than 100 µM; with KM20L2 colon, greater than 58.5 µM; in the experiment on DMS 114 small cell lung, greater than 100 µM; with OVCAR-4 ovarian, greater than 100 µM; in the experiment with 786-0 renal it was greater than 100 µM.
On to `CC1CC[C@]2(C(=O)O)CCC3(C)C(=CC(=O)C4[C@@]5(C)CCC(=O)C(C)(C)C5CC[C@]43C)[C@@H]2[C@H]1C` (some centres undefined), for which the TGI in the experiment on DMS 114 small cell lung was 63.1 µM; with XF 498 CNS, 29.5 µM; with OVCAR-4 ovarian, greater than 100 µM; with 786-0 renal, greater than 100 µM.
As to `CC1(C)C(=O)N(CCCCCCN2C(=O)C(C)(C)c3ccccc32)c2ccccc21`, the TGI is greater than 100 µM in the experiment on KM20L2 colon; 43.4 µM with DMS 114 small cell lung; 53.6 µM in the experiment with XF 498 CNS; greater than 100 µM in the experiment with OVCAR-4 ovarian; 40.8 µM in the experiment with 786-0 renal.
In the case of `CCC[CH2][Sn]1([CH2]CCC)[O]CC(CN2CCCC2)[O]1` (centres undefined), the GI50 was 16.1 µM in the experiment on DLD-1 colon; 20.6 µM with KM20L2 colon; 13 µM in the experiment on DMS 114 small cell lung; 14.4 µM in the experiment on OVCAR-4 ovarian; 14400 nM in the experiment with 786-0 renal. Also, the TGI came out at 32.7 µM in the experiment on DLD-1 colon; 52 µM in the experiment with KM20L2 colon; 27 µM with DMS 114 small cell lung; 28.5 µM with OVCAR-4 ovarian; 28.2 µM in the experiment on 786-0 renal.
As to `c1cc(CNC23CC4CC(CC(C4)C2)C3)cc(C[N+](Cc2cccc(CNC34CC5CC(CC(C5)C3)C4)c2)(Cc2cccc(CNC34CC5CC(CC(C5)C3)C4)c2)Cc2cccc(CNC34CC5CC(CC(C5)C3)C4)c2)c1` (centres undefined), the GI50 in the experiment with MDA-MB-231 breast is 8.73 µM; with NCI/ADR-RES ovarian it was 6.01 µM; in the experiment with BT-549 breast, 4270 nM; with OVCAR-4 ovarian, 4.85 µM; in the experiment on MCF7 breast, 4460 nM; in the experiment on 786-0 renal, 3550 nM. In addition, the TGI with MDA-MB-231 breast turned out to be 31 µM; in the experiment with NCI/ADR-RES ovarian, 19000 nM; in the experiment with BT-549 breast, 11.6 µM; in the experiment on OVCAR-4 ovarian, 22.8 µM; with MCF7 breast it was 25.9 µM; in the experiment on 786-0 renal it was 7.75 µM.
`CN1C/C=C\CCOc2cccc(c2)-c2ccnc(n2)Nc2cccc(c2)C1`: the GI50 in the experiment on MDA-MB-231 breast was 0.0591 µM; with NCI/ADR-RES ovarian it was 0.0654 µM; in the experiment with BT-549 breast, 78.9 nM; with OVCAR-4 ovarian, 0.113 µM; in the experiment with MCF7 breast, 35.4 nM; in the experiment on 786-0 renal, 56.8 nM. The TGI in the experiment with MDA-MB-231 breast turned out to be 0.859 µM; in the experiment on NCI/ADR-RES ovarian, 1450 nM; in the experiment on BT-549 breast, 0.393 µM; in the experiment on OVCAR-4 ovarian it was 1.88 µM; with MCF7 breast it was 1.23 µM; with 786-0 renal it was 0.802 µM.
On to `O=C1CCN2C(=O)CCN12`, for which the TGI with DMS 114 small cell lung, in the experiment with XF 498 CNS, with OVCAR-4 ovarian and in the experiment with 786-0 renal was greater than 100 µM in each case.
Take `Cc1cccc(NC(=O)/C(=N\NC(C)(C)C)C2NC(=S)NC2=O)c1C` (centres undefined): the TGI in the experiment on DLD-1 colon, in the experiment with KM20L2 colon, in the experiment on OVCAR-4 ovarian and in the experiment with 786-0 renal was greater than 100 µM in each case.
Turning to `CC(C)(C)c1ccc2c(c1)S(=O)(=O)Nc1ccccc1NS(=O)(=O)c1cc(C(C)(C)C)ccc1OCCOCCOCCO2`, the TGI in the experiment on DLD-1 colon was greater than 100 µM; in the experiment with DMS 114 small cell lung it was greater than 100 µM; in the experiment on OVCAR-4 ovarian it was 48 µM; in the experiment on 786-0 renal it was greater than 100 µM.
In the case of `COc1cc(/C=C/c2cc(/C=C/c3ccc(O)c(OC)c3)n(C(=O)Nc3ccc(F)c(Cl)c3)n2)ccc1O`, the GI50 in the experiment on MDA-MB-231 breast is 0.495 µM; with NCI/ADR-RES ovarian, 0.126 µM; in the experiment with BT-549 breast, 921 nM; with OVCAR-4 ovarian it was 0.721 µM; in the experiment on MCF7 breast, 185 nM; with 786-0 renal it was 520 nM. Besides, the TGI in the experiment with MDA-MB-231 breast stood at 3.85 µM; with NCI/ADR-RES ovarian it was 3090 nM; in the experiment on BT-549 breast, 7.98 µM; in the experiment with OVCAR-4 ovarian, 5.47 µM; with MCF7 breast, 1.51 µM; in the experiment with 786-0 renal, 1.71 µM.
`NCCCCN(CCCN)/[N+]([O-])=N\O`: the TGI in the experiment with DLD-1 colon, in the experiment with KM20L2 colon, with DMS 114 small cell lung, in the experiment on OVCAR-4 ovarian and in the experiment with 786-0 renal was greater than 100 µM each time.
Take `N=C1C(c2nc3ccccc3s2)=C(O)CN1c1cc(C(F)(F)F)ccc1Cl`: the GI50 in the experiment with MDA-MB-231 breast is 12.1 µM; in the experiment with NCI/ADR-RES ovarian, 7.45 µM; in the experiment with BT-549 breast it was 43400 nM; in the experiment on OVCAR-4 ovarian it was greater than 100 µM; with MCF7 breast, 16900 nM; in the experiment on 786-0 renal, 38100 nM. The TGI was 95.7 µM in the experiment with MDA-MB-231 breast; 37600 nM with NCI/ADR-RES ovarian; greater than 100 µM with BT-549 breast; greater than 100 µM in the experiment with OVCAR-4 ovarian; 92.1 µM with MCF7 breast; greater than 100 µM in the experiment on 786-0 renal.
For `COc1cc2c(c(OC)c1OC)-c1ccc(OC)c(=O)cc1[C@@H](NC(=O)c1ccccc1)CC2`, the TGI in the experiment with DLD-1 colon is greater than 100 µM; with MDA-MB-231 breast it was 15.7 µM; with NCI/ADR-RES ovarian, 1150 nM and 1050 nM; in the experiment with BT-549 breast it was 30 µM; in the experiment on DMS 114 small cell lung, less than 0.016 µM; in the experiment with XF 498 CNS, 3.86 µM. In addition, the TGI in the experiment with OVCAR-4 ovarian was 30 µM and > 100 µM; with MCF7 breast, 30 µM and > 7.65 µM; with 786-0 renal it was 30 µM and 47.5 µM. Further, the GI50 in the experiment with BT-549 breast is less than 3 nM; in the experiment with OVCAR-4 ovarian it was 28.1 µM and 13.4 µM; in the experiment on MCF7 breast, less than 3 nM; in the experiment with 786-0 renal, 11.4 nM.
